Source: ChEMBL document CHEMBL4371056, “The development and characterization of a chemical probe targeting PRMT1 over PRMT5” (Bioorg Med Chem, 2019)
Activity calls are given as the source filed them. The calls are words filed in the database; no cut-off is given here. Starred links: 1 amine or outer side, 2 acyl side, 3 side chain; linkers in the order of their positions; H or OH if unused. Non-standard residues stand in square brackets, D forms with d. Residues, ends and D or L forms follow the SMILES beside them. *: point of attachment. X1 = N=C(CCl)NCCCC(N[*:1])C(=O)[*:2]; Butanoyl(4-ethynyl) = C#CCCCC(=O)*

Columns and labels:
[1] = target: T1, Protein arginine N-methyltransferase 5 (Homo sapiens, UniProt O14744); assay: Inhibition of recombinant full-length N-terminal His6-tagged PRMT5 (unknown origin) using AcH4-21 peptide substrate preincubated for 10 mins followed by substrate/14C-methyl-SAM addition and measured after 15 mins by phosphorimaging analysis based radioisotopic assay
T1 sequence (O14744 whole entry): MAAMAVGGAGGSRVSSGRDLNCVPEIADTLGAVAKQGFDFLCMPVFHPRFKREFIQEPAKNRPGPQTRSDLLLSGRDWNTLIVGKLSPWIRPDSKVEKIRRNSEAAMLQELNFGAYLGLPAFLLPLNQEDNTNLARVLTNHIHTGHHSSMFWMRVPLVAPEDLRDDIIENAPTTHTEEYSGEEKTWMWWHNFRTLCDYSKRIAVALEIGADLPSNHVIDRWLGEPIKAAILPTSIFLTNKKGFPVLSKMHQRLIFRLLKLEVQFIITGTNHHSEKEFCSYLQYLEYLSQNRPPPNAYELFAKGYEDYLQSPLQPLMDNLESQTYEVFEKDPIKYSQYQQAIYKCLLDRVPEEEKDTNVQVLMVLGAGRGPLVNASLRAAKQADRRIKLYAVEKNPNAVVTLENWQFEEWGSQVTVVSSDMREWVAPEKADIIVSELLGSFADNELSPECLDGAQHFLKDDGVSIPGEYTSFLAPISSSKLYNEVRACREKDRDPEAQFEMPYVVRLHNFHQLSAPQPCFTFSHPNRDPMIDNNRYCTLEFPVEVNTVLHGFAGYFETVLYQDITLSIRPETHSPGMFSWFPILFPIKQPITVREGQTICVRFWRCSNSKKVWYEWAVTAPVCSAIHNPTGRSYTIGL

[2] = target: T2, Protein arginine N-methyltransferase 1 (Homo sapiens, UniProt Q99873); assay: (§1) Binding affinity to recombinant full-length N-terminal His6-tagged PRMT1 (unknown origin) assessed as time needed for maximum biotin labelling of PRMT1 at 10 uM using biotin azide and in presence of SAM incubated for 30 mins by Western blot analysis
Target sequence in this assay (Q99873 whole entry, looked up): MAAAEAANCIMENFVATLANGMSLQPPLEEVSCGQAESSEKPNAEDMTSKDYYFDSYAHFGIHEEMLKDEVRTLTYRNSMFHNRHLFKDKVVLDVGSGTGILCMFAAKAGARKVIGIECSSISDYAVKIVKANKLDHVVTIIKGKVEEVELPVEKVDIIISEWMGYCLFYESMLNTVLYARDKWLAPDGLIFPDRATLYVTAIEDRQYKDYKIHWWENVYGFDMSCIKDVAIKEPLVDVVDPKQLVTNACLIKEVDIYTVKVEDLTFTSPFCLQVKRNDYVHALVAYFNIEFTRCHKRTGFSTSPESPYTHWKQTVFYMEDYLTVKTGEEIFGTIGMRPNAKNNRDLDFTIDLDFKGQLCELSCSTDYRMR

[3] = target: T2, Protein arginine N-methyltransferase 1; assay: as §1, with “as” for “as time needed for maximum”, “uM in presence of recombinant full-length N-terminal His6-tagged PRMT5 (unknown origin)” for “uM”, “mins at 25 degC” for “mins”
Target sequence in this assay (Q99873 whole entry, looked up): as above

[4] = target: T2, Protein arginine N-methyltransferase 1; assay: Binding affinity to recombinant full-length N-terminal His6-tagged PRMT1 (unknown origin) assessed as lowest drug level for biotin labelling of PRMT1 using biotin azide and in presence of SAM incubated for 30 mins by Western blot analysis
Target sequence in this assay (Q99873 whole entry, looked up): as above

[5] = target: T1, Protein arginine N-methyltransferase 5; assay: Binding affinity to recombinant full-length N-terminal His6-tagged PRMT5 (unknown origin) assessed as biotin labelling of PRMT5 at 50 uM using biotin azide incubated for 30 mins by Western blot analysis
[6] = species: Homo sapiens; assay: Binding affinity to PRMT1 C101A mutant (unknown origin) assessed as biotin labelling of PRMT1 at >25 uM using biotin azide and in presence of SAM incubated for 30 mins by Western blot analysis
[7] = target: T2, Protein arginine N-methyltransferase 1; assay: Binding affinity to recombinant full-length N-terminal His6-tagged PRMT1 (unknown origin) assessed as biotin labelling of PRMT1 at >25 uM using biotin azide incubated for 30 mins by Western blot analysis
Target sequence in this assay (Q99873 whole entry, looked up): as above

[8] = species: Homo sapiens; assay: Binding affinity to PRMT1 C101A mutant (unknown origin) assessed as biotin labelling of PRMT1 at <25 uM using biotin azide and in presence of SAM incubated for 30 mins by Western blot analysis
[9] = target: T2, Protein arginine N-methyltransferase 1; assay: Binding affinity to recombinant full-length N-terminal His6-tagged PRMT1 (unknown origin) assessed as biotin labelling of PRMT1 at 1 uM using biotin azide and in absence of SAM incubated for 30 mins by Western blot analysis
Target sequence in this assay (Q99873 whole entry, looked up): as above

[10] = species: Homo sapiens; assay: Binding affinity to PRMT1 C101A mutant (unknown origin) assessed as optimum drug level for biotin labelling of PRMT1 using biotin azide and in presence of SAM incubated for 30 mins by Western blot analysis
[11] = target: T2, Protein arginine N-methyltransferase 1; assay: as §1, with “as” for “as time needed for maximum”, “uM in presence of recombinant full-length N-terminal His6-tagged PRMT5 (unknown origin)” for “uM”, “mins at 37 degC” for “mins”
Target sequence in this assay (Q99873 whole entry, looked up): as above

[12] = species: Homo sapiens; assay: Selectivity index, ratio of binding affinity to recombinant full-length N-terminal His6-tagged PRMT5 (unknown origin) assessed as biotin labelling of PRMT5 at 25 uM to binding affinity to recombinant full-length N-terminal His6-tagged PRMT1 (unknown origin) assessed as biotin labelling of PRMT1 at 25 uM
[13] = target: T2, Protein arginine N-methyltransferase 1; assay: Inhibition of recombinant full-length N-terminal His6-tagged PRMT1 (unknown origin) using AcH4-21 peptide substrate preincubated for 10 mins followed by substrate/14C-methyl-SAM addition and measured after 15 mins by phosphorimaging analysis based radioisotopic assay
Target sequence in this assay (Q99873 whole entry): as the sequence (Q99873 whole entry, looked up) above

[14] = target: T2, Protein arginine N-methyltransferase 1; assay: Binding affinity to recombinant full-length N-terminal His6-tagged PRMT1 (unknown origin) assessed as biotin labelling of PRMT1 at 1 uM using biotin azide and in presence of SAM incubated for 30 mins by Western blot analysis

## C#CCCCC(=O)N[C@@H](Cc1cnc[nH]1)C(=O)N[C@@H](CCCCN)C(=O)N[C@@H](Cc1cnc[nH]1)C(=O)N[C@@H](C)C(=O)NC(CCCNC(=N)CCl)C(=O)NCC(=O)NCC(=O)N[C@@H](CCCCN)C(=O)NCC(=O)N[C@@H](CC(C)C)C(=O)NCC(=O)N[C@@H](CCCCN)C(=O)NCC(=O)NCC(=O)N[C@@H](C)C(=O)N[C@@H](CCCCN)C(=O)O (some centres undefined) ({Butanoyl(4-ethynyl)}-HKHA[X1]GGKGLGKGGAK-OH)
[1]
  IC50: > 500 µM
[2]
  TIME: 0.5 h
[3]
  Activity: Active
[4]
  Activity: 0.25 µM
[5]
  Activity: inactive
[6]
  Activity: Active
[7]
  Activity: Active
[8]
  Activity: inactive
[9]
  Activity: Active
[10]
  Activity: 10 µM
[11]
  Activity: Active
[12]
  Ratio: 8
[13]
  IC50: 20 µM
[14]
  Activity: Active
